Key:
ROCK2 = molecular target: T1, ROCK2 (Homo sapiens, UniProt O75116); experiment: ROCK2 kinase binding affinity, DiscoverX KINOMEscan KdELECT; conditions: for ROCK 2 Selectivity: ROCK2 over ROCK1, from Kd values, N/C = not calculated; for Kd: equilibrium dissociation constant, 11-point 3-fold dilution series, read-out: Kd (μM) ROCK2
T1 construct: purchased DiscoverX (KINOMEscan KdELECT service); host or cells: E. coli BL21-derived (T7 phage) or HEK-293

ROCK1 = molecular target: T2, ROCK1 (Homo sapiens, UniProt Q13464); experiment: ROCK1 kinase binding affinity, DiscoverX KINOMEscan KdELECT; conditions: equilibrium dissociation constant, 11-point 3-fold dilution series
T2 construct: purchased DiscoverX (KINOMEscan KdELECT service); host or cells: E. coli BL21-derived (T7 phage) or HEK-293
T2 sequence (Q13464 whole entry): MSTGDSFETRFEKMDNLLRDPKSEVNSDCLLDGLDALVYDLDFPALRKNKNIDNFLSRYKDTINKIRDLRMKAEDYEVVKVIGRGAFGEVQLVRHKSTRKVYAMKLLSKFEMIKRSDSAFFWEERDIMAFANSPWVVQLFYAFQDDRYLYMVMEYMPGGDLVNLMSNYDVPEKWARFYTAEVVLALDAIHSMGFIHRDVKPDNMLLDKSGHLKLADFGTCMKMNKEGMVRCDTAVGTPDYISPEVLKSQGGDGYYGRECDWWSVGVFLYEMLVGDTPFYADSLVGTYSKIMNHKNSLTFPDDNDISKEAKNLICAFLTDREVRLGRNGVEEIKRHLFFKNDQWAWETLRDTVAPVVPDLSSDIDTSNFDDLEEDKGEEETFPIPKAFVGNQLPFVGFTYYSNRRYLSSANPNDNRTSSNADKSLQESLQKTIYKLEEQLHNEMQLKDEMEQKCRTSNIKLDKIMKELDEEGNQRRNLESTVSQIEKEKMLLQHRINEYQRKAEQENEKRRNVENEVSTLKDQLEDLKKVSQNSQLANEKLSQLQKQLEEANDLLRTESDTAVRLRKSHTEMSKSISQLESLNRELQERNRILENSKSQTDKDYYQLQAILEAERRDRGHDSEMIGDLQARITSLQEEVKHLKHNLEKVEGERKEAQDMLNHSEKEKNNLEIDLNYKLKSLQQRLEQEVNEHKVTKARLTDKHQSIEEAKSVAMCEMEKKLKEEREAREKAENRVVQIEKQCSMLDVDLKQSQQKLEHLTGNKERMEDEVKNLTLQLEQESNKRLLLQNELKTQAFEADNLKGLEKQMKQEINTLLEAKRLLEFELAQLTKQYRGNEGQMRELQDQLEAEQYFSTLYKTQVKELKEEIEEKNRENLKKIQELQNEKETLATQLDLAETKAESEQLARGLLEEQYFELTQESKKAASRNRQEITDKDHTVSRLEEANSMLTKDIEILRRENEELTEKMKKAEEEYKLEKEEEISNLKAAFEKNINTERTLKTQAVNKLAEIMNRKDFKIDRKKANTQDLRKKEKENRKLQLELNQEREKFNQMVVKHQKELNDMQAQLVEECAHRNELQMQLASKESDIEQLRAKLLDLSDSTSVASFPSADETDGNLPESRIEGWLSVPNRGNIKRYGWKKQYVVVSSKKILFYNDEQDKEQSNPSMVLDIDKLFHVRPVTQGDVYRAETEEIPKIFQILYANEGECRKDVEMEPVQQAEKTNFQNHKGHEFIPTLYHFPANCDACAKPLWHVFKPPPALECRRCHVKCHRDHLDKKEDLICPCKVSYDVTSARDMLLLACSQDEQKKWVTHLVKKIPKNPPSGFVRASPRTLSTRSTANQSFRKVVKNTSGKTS

[1] = 12-16 weeks of dosing in healthy volunteers and patients; cited from earlier work
fibroblasts = fibroblasts treated with KD025; cited from earlier work
[2] = tested on: murine autoimmune disease; conditions: cited from earlier work

T1 sequence (O75116 whole entry): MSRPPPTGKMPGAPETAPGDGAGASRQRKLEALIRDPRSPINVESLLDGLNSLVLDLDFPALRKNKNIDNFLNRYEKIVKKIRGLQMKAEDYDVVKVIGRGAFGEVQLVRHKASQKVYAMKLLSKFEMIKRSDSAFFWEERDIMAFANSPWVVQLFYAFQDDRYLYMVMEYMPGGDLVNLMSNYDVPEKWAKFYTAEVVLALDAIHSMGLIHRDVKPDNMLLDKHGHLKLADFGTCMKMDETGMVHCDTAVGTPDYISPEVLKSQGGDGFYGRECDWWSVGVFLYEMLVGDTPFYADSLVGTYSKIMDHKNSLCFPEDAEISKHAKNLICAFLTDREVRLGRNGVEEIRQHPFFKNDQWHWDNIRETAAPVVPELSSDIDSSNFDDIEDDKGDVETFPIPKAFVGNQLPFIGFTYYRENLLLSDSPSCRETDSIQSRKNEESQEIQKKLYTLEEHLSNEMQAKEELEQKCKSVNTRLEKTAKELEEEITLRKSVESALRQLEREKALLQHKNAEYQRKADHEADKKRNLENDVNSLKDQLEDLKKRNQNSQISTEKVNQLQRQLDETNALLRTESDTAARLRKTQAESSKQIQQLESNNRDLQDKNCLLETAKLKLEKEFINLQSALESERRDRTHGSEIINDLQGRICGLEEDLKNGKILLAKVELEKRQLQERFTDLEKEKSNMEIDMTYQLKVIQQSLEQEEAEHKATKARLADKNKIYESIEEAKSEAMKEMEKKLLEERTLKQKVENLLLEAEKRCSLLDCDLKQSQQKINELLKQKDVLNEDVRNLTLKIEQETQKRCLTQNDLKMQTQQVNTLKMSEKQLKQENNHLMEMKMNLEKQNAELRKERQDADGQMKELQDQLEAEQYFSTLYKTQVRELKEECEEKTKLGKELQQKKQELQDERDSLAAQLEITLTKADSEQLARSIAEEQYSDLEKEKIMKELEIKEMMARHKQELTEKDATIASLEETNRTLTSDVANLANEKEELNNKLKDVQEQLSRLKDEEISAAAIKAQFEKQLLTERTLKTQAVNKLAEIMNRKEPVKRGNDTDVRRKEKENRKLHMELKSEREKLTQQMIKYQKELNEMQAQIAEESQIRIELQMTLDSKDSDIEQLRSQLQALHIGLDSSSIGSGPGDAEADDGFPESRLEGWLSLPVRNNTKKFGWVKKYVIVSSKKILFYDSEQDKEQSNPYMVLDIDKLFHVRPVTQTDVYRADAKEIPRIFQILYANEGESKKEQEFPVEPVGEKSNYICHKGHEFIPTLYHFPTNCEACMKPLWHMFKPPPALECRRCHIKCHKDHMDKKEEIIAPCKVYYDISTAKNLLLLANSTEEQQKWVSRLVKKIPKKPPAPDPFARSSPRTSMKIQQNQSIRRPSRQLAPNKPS

Structure (SMILES)	ROCK 2 Selectivity (ROCK2)	Kd (ROCK2) [µM]	Kd (ROCK1) [µM]	hemodynamic or other side effects [1]	expression of profibrotic mRNA (fibroblasts)	expression of pro-inflammatory, fibrosis-linked cytokines; autoimmune disease [2]
Cc1nnc2n1CCN(c1nccc(-c3nccc(C#Cc4ccc5[nH]ncc5c4)n3)n1)C2 [Ex. 64, 7-(4-((1H-Indazol-5-yl)ethynyl)-[2,4′-bipyrimidin]-2′-yl)-3-methyl-5,6,7,8-tetrahydro-[1,2,4]triazolo[4,3-a]pyrazine]	10.3	0.33	3.4			
Fc1ccc(C2CCN(c3nccc(-c4nccc(C#Cc5ccc6[nH]ncc6c5)n4)n3)C2)cc1 (stereo not drawn) [Ex. 71, 5-((2′-(3-(4-Fluorophenyl)pyrrolidin-1-yl)-[2,4′-bipyrimidin]-4-yl)ethynyl)-1H-indazole]	36.1	0.36	13			
CC(C)NC(=O)COc1cccc(-c2nc(Nc3ccc4[nH]ncc4c3)c3ccccc3n2)c1 [KD025]				no hemodynamic or other side effects	decreased expression of several profibrotic mRNA including that of CTGF	decreased expression of pro-inflammatory, fibrosis-linked cytokines and mitigated murine autoimmune disease

More lines, in order of falling Kd (ROCK2), values ahead:

ROCK 2 Selectivity (ROCK2)	Kd (ROCK2) [µM]	Kd (ROCK1) [µM]	Structure (SMILES)	hemodynamic or other side effects [1]	expression of profibrotic mRNA (fibroblasts)	expression of pro-inflammatory, fibrosis-linked cytokines; autoimmune disease [2]
>90.9	0.33	> 30	C(#Cc1ccnc(-c2ccnc(N3CCN(c4nccs4)CC3)n2)n1)c1ccc2[nH]ncc2c1 [Ex. 63, 2-(4-(4-((1H-Indazol-5-yl)ethynyl)-[2,4′-bipyrimidin]-2′-yl)piperazin-1-yl)thiazole]			
36.2	0.26	9.4	C(#Cc1ccnc(-c2ccnc(N3CCC(c4ccccc4)C3)n2)n1)c1ccc2[nH]ncc2c1 (stereo not drawn) [Ex. 69, 5-((2′-(3-Phenylpyrrolidin-1-yl)-[2,4′-bipyrimidin]-4-yl)ethynyl)-1H-indazole]			
27.7	0.22	6.1	COc1cccc(C2CCN(c3nccc(-c4nccc(C#Cc5ccc6[nH]ncc6c5)n4)n3)C2)c1 (stereo not drawn) [Ex. 70, 5-((2′-(3-(3-Methoxyphenyl)pyrrolidin-1-yl)-[2,4′-bipyrimidin]-4-yl)ethynyl)-1H-indazole]			
142	0.024	3.4	C(#Cc1ccnc(-c2ccnc(N3Cc4ncsc4C3)n2)n1)c1ccc2[nH]ncc2c1 [Ex. 65, 5-(4-((1H-Indazol-5-yl)ethynyl)-[2,4′-bipyrimidin]-2′-yl)-5,6-dihydro-4H-pyrrolo[3,4-d]thiazole]			

From patent US20220281841A1, “ETHYNYLHETEROCYCLES AS RHO-ASSOCIATED COILED-COIL KINASE (ROCK) INHIBITORS” (Angion Biomedica Corp., priority 2019, published 2022)
